One test concerns the target T1, PdTRPV5/6-like (Pocillopora damicornis, UniProt Z9K305B7A5).
T1 construct: full-length ORF, 724 residues, cloned from aquarium coral cDNA into pcDNA3.1, HEK293 transient expression; EGFP on separate plasmid; tetramer
T1 sequence (Z9K305B7A5 1-724): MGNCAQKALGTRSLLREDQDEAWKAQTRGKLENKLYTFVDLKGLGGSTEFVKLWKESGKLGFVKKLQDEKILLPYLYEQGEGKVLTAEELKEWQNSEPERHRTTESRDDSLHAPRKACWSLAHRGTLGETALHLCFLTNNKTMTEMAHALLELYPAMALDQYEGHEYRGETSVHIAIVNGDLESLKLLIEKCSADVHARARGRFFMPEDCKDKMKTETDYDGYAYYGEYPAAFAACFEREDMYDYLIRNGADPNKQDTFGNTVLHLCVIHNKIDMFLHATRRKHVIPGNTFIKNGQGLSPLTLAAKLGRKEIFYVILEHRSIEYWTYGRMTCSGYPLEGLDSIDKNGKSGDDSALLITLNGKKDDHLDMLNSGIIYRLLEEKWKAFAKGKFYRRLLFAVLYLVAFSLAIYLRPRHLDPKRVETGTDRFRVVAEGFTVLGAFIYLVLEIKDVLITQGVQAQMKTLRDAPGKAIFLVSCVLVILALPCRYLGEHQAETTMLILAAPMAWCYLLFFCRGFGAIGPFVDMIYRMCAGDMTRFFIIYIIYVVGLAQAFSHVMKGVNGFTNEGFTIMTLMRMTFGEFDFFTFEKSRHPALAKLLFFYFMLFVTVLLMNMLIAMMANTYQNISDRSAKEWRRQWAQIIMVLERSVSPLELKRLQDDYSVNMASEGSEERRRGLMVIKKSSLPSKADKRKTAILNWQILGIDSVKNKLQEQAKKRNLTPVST
The test can be described thus: outside-out patch clamp, HEK293. Format: cell-based. (In patch-clamp work, channel activity is measured electrically.)

The next test deals with T2, hTRPV5 (Homo sapiens, UniProt Q9NQA5).
T2 construct: gene TRPV5; EGFP on separate plasmid; tetramer
The test can be described thus: outside-out patch clamp, HEK293. Format: cell-based.

T2 sequence (Q9NQA5 whole entry): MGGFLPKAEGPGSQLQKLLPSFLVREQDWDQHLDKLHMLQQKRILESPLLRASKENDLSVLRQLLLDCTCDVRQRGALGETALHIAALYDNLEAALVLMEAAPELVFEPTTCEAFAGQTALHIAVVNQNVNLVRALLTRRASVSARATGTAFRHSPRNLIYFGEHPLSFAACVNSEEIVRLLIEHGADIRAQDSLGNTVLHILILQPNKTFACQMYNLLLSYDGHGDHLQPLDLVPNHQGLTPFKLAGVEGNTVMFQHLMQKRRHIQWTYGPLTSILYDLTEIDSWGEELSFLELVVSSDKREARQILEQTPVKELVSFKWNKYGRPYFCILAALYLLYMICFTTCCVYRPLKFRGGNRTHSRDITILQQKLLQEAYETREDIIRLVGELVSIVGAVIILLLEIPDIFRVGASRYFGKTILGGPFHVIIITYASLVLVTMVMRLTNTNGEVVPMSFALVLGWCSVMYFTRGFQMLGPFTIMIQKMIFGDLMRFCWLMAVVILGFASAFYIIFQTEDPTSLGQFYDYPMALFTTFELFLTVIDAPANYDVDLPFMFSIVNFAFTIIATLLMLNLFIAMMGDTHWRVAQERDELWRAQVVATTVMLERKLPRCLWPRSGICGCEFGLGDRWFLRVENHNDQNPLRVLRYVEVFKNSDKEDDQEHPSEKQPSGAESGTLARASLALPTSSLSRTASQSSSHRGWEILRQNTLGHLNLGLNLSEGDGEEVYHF

At PdTRPV5/6-like, `CC(C)[C@@H]1CC[C@@H](C)C[C@H]1O` [(-)-menthol] yielded an IC50 of 120 µM.

In turn, `Clc1ccc(COC(Cn2ccnc2)c2ccc(Cl)cc2Cl)c(Cl)c1` (centres unmarked) [miconazole] registered an IC50 at hTRPV5 of 51.2 nM.

For orientation: IC50 means the concentration needed to halve the response being measured. A low value points to higher potency.
